According to US3989746A, “Substituted naphthyl anthranilic acids” (Ikeda Mohando Co., Ltd., priority 1972, dated 1976):

Tests used:
Carragheenin foot edema = assay: Carragheenin foot edema; assay type: in vivo, rats (male, Wister type); details: 100 mg/Kg oral, 1 h before carragheenin, foot volume 3 h after injection; for inhibition in vivo at 100 mg/kg: Rattus norvegicus, read-out: Anti-Inflammatory Effect Control Ratio, Carragheenin Foot Edema
Description: a. Carragheenin food edema
The test was conducted according to the method of C. […] Groups of rats (male rats of the Wister type having a body weight of 140-170 g), each group consisting of 5 to 11 rats, were caused to abstain from food for 16 hours, and a 4% gum arabic suspension of a test compound was orally administered to the rats in an amount of 100 mg/Kg. of the test compounds. Immediately, rats were allowed to drink 5 ml of purified water. […] After 3 hours had passed from the injection, the volume of the right foot was measured again to determine the increase of the volume of the right foot. In control groups, only a 4% gum arabic liquor free of a test compound was orally administered, and subsequent procedures were conducted similarly to determine the increase of the volume of the right foot. The carragheenin foot edema control ratio was calculated according to the following formula: [formula] wherein C indicates the foot volume increase in the control group and D indicates the foot volume increase in the test compound-administered group.

Ultraviolet erythema = assay: Ultraviolet erythema; assay type: in vivo, guinea pigs (male, Hartley type); details: 10 mg/Kg oral, 1 h before irradiation, read 3 h after irradiation; for inhibition in vivo at 10 mg/kg: Cavia porcellus, light or radiation study, read-out: Anti-Inflammatory Effect Control Ratio, Ultraviolet Erythema
Description: The test was conducted according to a modification of the method of C. […] Groups of guinea pigs (male guinea pigs of the Hartley type having a body weight of 300 to 450 g), each group consisting of 5 to 10 guinea pigs, were employed for the test. Hairs were removed from backs of the guinea pigs by an electric hair-clipper and a depilatory agent. The guinea pigs were caused to abstain from food for 18 to 19 hours, and a test compound was orally administered in an amount of 10 mg/Kg in the form suspended in a 4% gum arabic liquor. In the case of control groups, only a 4% gum arabic liquor was administered. An adhesive plaster according to the Japanese pharmacopoeia, on which three small holes having a diameter of 5 mm were opened, was applied to the hair-removed portion of the back. […] When 3 hours had passed from the irradiation, the degree of the formation of erythema was determined. One point was given to the guinea pig on which a definite round erythema was formed, a point of 0.5 was given to the guinea pig on which formation of erythema was observed but its contour was not definite, and a point of 0 was given to the guinea pig on which no erythema was formed. Total points were calculated in both the test compound-administered group and the control group, and the control ratio was calculated from these total points. [formula]

Adjuvant arthritis = assay: Adjuvant arthritis; assay type: in vivo, rats (female, Wister type); details: 9 mg/Kg per day oral for 25 days, foot volume on 23rd day from adjuvant injection; for inhibition in vivo at 9 mg/kg: Rattus norvegicus, 552 h, read-out: Anti-Inflammatory Effect Control Ratio, Adjuvant Arthritis
Description: With respect to the foregoing compounds, anti-inflammatory effects against carragheenin foot edema, ultraviolet erythema and adjuvant arthritis were tested by using rate according to the following methods to obtain results shown below.
The test was conducted according to a modification of the method of B. B. Newbould (Brit. J. Pharmacol., 21, 127 (1963)). Groups of female rats of the Wister type having a body weight of 180 - 240 g, each group consisting of 4 to 8 rats, were tested. 0.05 ml of an adjuvant (formed by suspending 5 mg of dead tuberculous bacillus, Aoyama B strain, in 1 ml of fluid paraffin according to the Japanese pharmacopoeia) was hypodermically injected in the right foot heel of each rat. A test compound was orally administered in a dosage of 9 mg/Kg per day in the form suspended in a 5% gum arabic liquor continuously for 25 days from one day before the injection of the adjuvant. In the case of the control group, only a 5% gum arabic liquor was continuously administered in the same manner. The volume of the right foot was measured 1 day before the injection of the adjuvant and on the 23rd day from the injection of the adjuvant with respect to each group. Thus, the increase of the foot volume was calculated in either the test compound-administered group or the control group, and the ratio of control of the adjuvant arthritis was calculated according to the following formula: [formula] in which C is the increase of the volume of the right foot in the control group and D indicates the increase of the volume of the right foot in the test compound-administered rat group.

inflammatory pain = assay: Analgesic effect on inflammatory pain (modified Randall and Selitto); assay type: in vivo, rats (male, Wister type); details: 100 mg/Kg oral, 1 hour before carragheenin; pain measured 3 hours after injection
Description: Groups of male rats of the Wister type having a body weight of about 150 g were tested, each group consisting of 5 rats. The rats were caused to abstain from food overnight, and 0.05 ml of a 1% carragheenin solution was hypodermically injected into the right hind leg of each rat. […] The test compound was orally administered in a dosage of 100 mg/Kg 1 hour before the injection of carragheenin. [formula]

male mice = assay: in vivo; details: 7 days
Description: (§1) With respect to the foregoing test compounds, the acute toxicity was examined by employing mice according to the following method.
(§2) Groups of male mice of the dd type having a body weight of 18 to 22 g, each, group consisting of 5 mice, were tested to determine the acute toxicity. The test compound was orally administered in a dosage indicated in Table 3a in the form suspended in 5% gum arabic liquor. The determination was conducted 7 days after the administration. Further, the LD50 values were calculated according to the method of Lichfield-Wilcoxon.

in vivo [1] = details: mouse, in vivo, po
Description: as §1, §2

in vivo [2] = details: rat, po

Row | SMILES | inhibition in vivo at 100 mg/kg (Carragheenin foot edema) | inhibition in vivo at 10 mg/kg (Ultraviolet erythema) | inhibition in vivo at 9 mg/kg (Adjuvant arthritis) | Analgesic Coefficient (inflammatory pain) | Number of Dead Mice/Number of Mice Tested (male mice; 1 g/kg oral) | Number of Dead Mice/Number of Mice Tested (male mice; 2 g/kg oral) | Number of Dead Mice/Number of Mice Tested (male mice; 3 g/kg oral) | Number of Dead Mice/Number of Mice Tested (male mice; 4 g/kg oral) | LD50 at 168 h (in vivo [1]) | LD50 (in vivo [2]) | Anti-Inflammatory Effect Control Ratio, Carragheenin Foot Edema (Carragheenin foot edema) | Anti-Inflammatory Effect Control Ratio, Ultraviolet Erythema (Ultraviolet erythema) | Anti-Inflammatory Effect Control Ratio, Adjuvant Arthritis (Adjuvant arthritis)
1 | O=C(O)c1ccccc1Nc1c(Cl)cc(Br)c2ccccc12 [Compound 8, N-(2-chloro-4-bromo-1-naphthyl)anthranilic acid] | 27.6% | 77.3% | 31.2% | 1.72 | 0 / 5 | 0 / 5 | 0 / 5 | 4 / 5 | – | – | – | – | –
2 | O=C(O)c1ccccc1Nc1cc(Cl)cc2ccccc12 [Compound 5, N-(3-chloro-1-naphthyl)anthranilic acid] | 31.4% | 40% | 41.4% | 1.31 | 0 / 5 | 0 / 5 | 4 / 5 | 5 / 5 | – | – | – | – | –
3 | O=C(O)c1ccccc1Nc1cccc(C(F)(F)F)c1 [Compound F, flufenamic acid, reference compound] | 60.7% | 60% | 72.4% | 1.42 | 5 / 5 | 5 / 5 | – | – | 545 mg/kg | 270 mg/kg | – | – | –
4 | O=C(O)c1ccccc1Nc1c(Cl)ccc2ccccc12 [Compound 3, N-(2-chloro-1-naphthyl)anthranilic acid] | 46.6% | 66.7% | 36.9% | 1.62 | 0 / 5 | 2 / 5 | 4 / 5 | 5 / 5 | – | – | – | – | –
5 | CCc1ccc(Nc2ccccc2C(=O)O)c2ccccc12 [4 Ethyl-] | – | – | – | 1.20 | 0 /10 | 2 /10 | 4 /10 | – | – | – | 46.2% | 60.0% | 21.5%
6 | O=C(O)c1ccccc1Nc1ccc(Cl)c2ccccc12 [Compound 1, n-(4-chloro-1-naphthyl)anthranilic acid] | 25.7% | 38% | 7.5% | 1.36 | 0 / 5 | 0 / 5 | 0 / 5 | 3 / 5 | > 12000 mg/kg | > 10000 mg/kg | – | – | –
7 | Cc1cc(Nc2ccccc2C(=O)O)c2ccccc2c1 [Compound 9, N-(3-methyl-1-naphthyl)anthranilic acid] | 44.3% | 46.3% | – | – | 0 / 5 | 3 / 5 | 5 / 5 | – | – | – | – | – | –
8 | CCCCCCc1ccc2ccccc2c1Nc1ccccc1C(=O)O [2 Hexyl-, N-(2-n-hexyl-naphthyl-1)anthranilic acid] | 8.5% | 44% | – | 1.28 | 0 /10 | 0 /10 | 0 /10 | – | – | – | – | – | –
9 | CCCCc1ccc(Nc2ccccc2C(=O)O)c2ccccc12 [4 Butyl-] | – | – | – | 1.41 | 0 /10 | 0 /10 | 5 /10 | – | – | – | 16.8% | 22.3% | 1.3%
10 | Cc1cc(Nc2ccccc2C(=O)O)c2ccccc2c1C [Compound 6, N-(3,4-dimethyl-1-naphthyl)anthranilic acid] | 47.1% | 17.1% | 17.2% | 1.28 | 0 / 5 | 2 / 5 | 5 / 5 | 5 / 5 | – | – | – | – | –
11 | CCCCc1ccc2ccccc2c1Nc1ccccc1C(=O)O [N-(2-butyl-naphthyl-1-anthranilic acid] | 31% | 50.3% | 26.2% | 1.38 | 0 /10 | 0 /10 | 0 /10 | – | – | – | – | – | –
12 | Cc1cccc(Nc2ccccc2C(=O)O)c1C [Compound M, mefenamic acid, reference compound] | 50.6% | 38.1% | 48.1% | 1.50 | 5 / 5 | 5 / 5 | – | – | – | – | – | – | –
13 | O=C(O)c1ccccc1Nc1c(F)ccc2ccccc12 [Compound 4, N-(2-fluoro-1-naphthyl)anthranilic acid] | 27.6% | 48.7% | 50% | 1.60 | 0 / 5 | 0 / 5 | 5 / 5 | 5 / 5 | – | – | – | – | –
14 | O=C(O)c1ccccc1Nc1cc(F)cc2ccccc12 [Compound 7, N-(3-fluoro-1-naphthyl)anthranilic acid] | 35.4% | 44% | 36.1% | 1.70 | – | 1 / 5 | 5 / 5 | – | – | – | – | – | –
15 | CC(C)Cc1ccc(Nc2ccccc2C(=O)O)c2ccccc12 [4 iso Butyl-, N-(4-isobutyl-naphthyl-1)anthranilic acid] | – | – | – | 1.37 | 0 /10 | 0 /10 | 2 /10 | – | – | – | 41.9% | 43.8% | 31.0%
